Test results taken from US6740680B1, “Pharmaceutical compositions to tetrac and methods of use thereof” (Becton Pharma, Inc., priority 1999, dated 2004).
Read-outs that look alike come from different tables or passages of the source. Values belong to the molecule of their own block, whether it stands above or below them.

Experiments:
[1] = tested on: monodeiodinase type 1 mRNA; assay: Northern blot, hepatic monodeiodinase type 1 mRNA; assay type: in vivo, rat; conditions: Liver, infused rats, adjusted group mean at the mean Ln (TSH) concentration
Procedure: (§1) Seventy-nine male SIVZ rats were purchased from the breeder (Institut für Labortierkunde des Universität Zürich, Zürich, Switzerland). They were rendered hypothyroid by a single injection of [^131I]Na (100 μCi/rat) and before and throughout the experiment 0.02% 2-mercapto-1-methylimidazol (MMI) was added to drinking water. In order to have an euthyroid control group of similar weight and identical age, 10 rats received only MMI in the drinking water and 2 weeks before implanting the minipumps, MMI was withdrawn. Osmotic minipumps (secretion rate 0.25 μl/hour, duration 14 days) were implanted intraperitoneally (i.p.) 2 months after the injection of [^131I]Na. The minipumps were filled with T4 or Tetrac dissolved in 0.05 N NaOH, 2% BSA and 100,000 cpm [^125I]T4 or [^125I]Tetrac as control of their secretion rates. The infusion lasted 13 days. 0, 1.5, 4.5, 13.5 and 40.5 nmol Tetrac/day/100 g or 0.5, 1.5, 4.5 and 13.5 nmol T4/day/100 g bodyweight (BW) (n=4/dose) were infused. An euthyroid control group was included. The animals were weighed every 2 days. Rats were sacrificed by decapitation and blood was collected and stored at […] until use. Tissues (liver, heart, brown adipose tissue, cerebral cortex and pituitary) were removed rapidly, frozen in liquid nitrogen and stored at […] until use.
(§2) Total RNA extraction and Northern Blot hybridization Total RNA was extracted with the method of Chomczynski and Sacchi (Chomczynski, P. and Sacchi, N. Anal. Biochem. (1987) 162: 156-159). […]
(§3) The amount of labeled mRNA was quantified by scanning laser densitometry (Phosphorimager, Molecular Dynamics; Sunnyvale, USA). Variations in RNA loading and membrane transfer were corrected by densitometric quantification of a negative photograph of 28S and 18S ribosomal RNA bands from ethidium bromide stained RNA gels. […]

hypothyroid rats = assay: Heart weight and heart/body weight in hypothyroid rats infused with Tetrac or T4; assay type: in vivo, rat; conditions: hypothyroid rats, mean ± SEM; for Heart: continuous minipump infusion
Procedure: as §1

TSH = assay: Serum TSH in hypothyroid rats infused with Tetrac or T4; assay type: in vivo, rat; conditions: for Serum TSH: hypothyroid rats, mean ± SEM
Procedure: Seventy-nine male SIVZ rats were purchased from the breeder (Institut für Labortierkunde des Universität Zürich, Zürich, Switzerland). […] The infusion lasted 13 days. […] An euthyroid control group was included. The animals were weighed every 2 days. Rats were sacrificed by decapitation and blood was collected and stored at […] until use. Tissues (liver, heart, brown adipose tissue, cerebral cortex and pituitary) were removed rapidly, frozen in liquid nitrogen and stored at […] until use.
Hornone assays. […] Endocrinol. […] Serum TSH measurements were performed with reagents kindly provided by the National Pituitary Program, NIAMDD, NIH (Bethesda, USA).

[2] = Serum T3, T4, Triac and Tetrac levels in infused rats; assay type: in vivo; conditions: male, SIVZ, rat, intraperitoneal, mean ± SEM, read-out: Serum T4
Procedure: as §1
Hornone assays. Total serum T4, T3, Tetrac, Triac and TSH levels (intra-assay coefficient of variation 7 to 10%, inter-assay coefficient of variation 12 to 15%) were measured using the method of Burger, A., Sakoloff, C., Staeheli, V., Vallotton, M. D., and Ingbar, S. H. Acta. Endocrinol. (Copenh.) 80: 58-69 (1975). Serum TSH measurements were performed with reagents kindly provided by the National Pituitary Program, NIAMDD, NIH (Bethesda, USA). The detection limits were 0.80 ng TSH/ml; 9.5 pmol T4/ml; 0.16 pmol T3/ml; 10 pmol Tetrac/ml and 0.52 pmol Triac/ml.

β-MHC mRNA = assay: Northern blot, β-MHC mRNA in heart; assay type: in vivo, rat; conditions: infused rats, adjusted group mean at the mean Ln (TSH) concentration
Procedure: as §1, §2, §3

Monodeiodinase type 2 = Monodeiodinase type 2 activity in brain cortex and brown adipose tissue of infused rats; assay type: in vivo, rat; conditions: for Residual monodeiodinase type 2 activity, adjusted mean: infused rats, remaining activity, adjusted group mean at the mean Ln (TSH) concentration
Procedure: as §1
(§4) Monodeiodinase type 1 and 2 activities. Monodeiodinase type 1 and type 2 activities were determined in tissue homogenates by measuring the release of radioiodide from [^125I]rT3 according to the method of Leonard and Rosenberg (Leonard, J. L. et al. Endocrinology (1980) 106: 444-451).
(§5) Monodeiodinase type 1 activity was measured in liver homogenates using 1 μM rT3 and 1 mM DTT with 10 min of incubation, whereas for heart, 0.01 μM rT3 and 10 mM DTT with 1 hour of incubation. Monodeiodinase type 2 activity was measured in brown adipose tissue (BAT) and cerebral cortex using 1 nM rT3, 10 mM DTT and 1 mM propylthiouracil (PTU) with 1 hour of incubation. Protein concentrations were measured by the method of Bradford (Bio-Rad Laboratories GmbH, Munich, Germany) with bovine gammaglobulin as the protein standard. In order to study the effect of circulating Tetrac on the enzyme activities, 2 rats were injected intraperitoneally with 10 μCi ^125I Tetrac and killed 6 hours later. The tissue homogenates were extracted with 3 volumes of ethanol-NH3 (97:3). After 10 minutes centrifugation at 15,000 g, the supernatant was vacuum dried and applied to TLC (Merck 254, Toluol, acetic acid, water: 2:2:1). In order to calculate the tissue concentrations, the highest serum Tetrac levels were used (406 pmol/ml). The calculated tissue concentrations were: liver: 1.9, heart: 2.29 and brain cortex: 0.47 fluol Tetrac/μg protein.

α-MHC mRNA = assay: Northern blot, α-MHC mRNA in heart; assay type: in vivo, rat
Procedure: as §1, §2, §3

Monodeiodinase type 1 = Monodeiodinase type 1 activity in liver and heart homogenates of infused rats; assay type: in vivo, rat; conditions: Liver, infused rats, adjusted group mean at the mean Ln (TSH) concentration
Procedure: as §1, §4, §5

GH mRNA = assay: Northern blot, growth hormone mRNA in pituitary; assay type: in vivo, rat; conditions: infused rats, adjusted group mean at the mean Ln (TSH) concentration
Procedure: as §1, §2, §3

Cynomologus monkeys = tested on: Cynomologus monkeys
Procedure: Preparation of Tetrac for injection. Tetrac from Rhône-Poulenc and Henning Laboratory were compared. Tetrac powder was dissolved in sterile 0.1 N NaOH at 2 mg/ml. This solution was made before the beginning of each treatment period and stored at 4° C. in polypropylene tubes, protected from light. Each solution for injection was prepared daily after dilution in the vehicle (0.9% NaCl) containing 5% monkey serum (v/v), and was stored at room temperature and protected from light, according to the storage conditions of the test substance.
Animals. One male and one female purpose bred Cynomologus monkeys Macaca fascicularis were supplied by Centre de Recherches Primatologiques, Port Louis, Mauritius. […] The animals were individually housed in stainless steel cages and a metallic tray was placed under each cage in order to collect urine. The animals were fed daily with approximately 200 grams each of U.A.R. 107 C pelleted diet (batch Nos. 61106, 61207 and 70317, U.A.R., Villemoisson-sur-Orge, France), distributed about 2 hours after treatment with Tetrac. No contaminants were known to have been present in the diet, drinking water or bedding material at levels which may be expected to have interfered with or prejudiced the outcome of the study.
Weeks 1 to 3 and weeks 7 to 9: the animals received the test substance TETRAC provided either by Rhone-Poulenc or by Henning Laboratories over a three-week period.
Weeks 4 to 6 and weeks 10 to 12: a washout period of three weeks was observed.
Administration of Tetrac. Tetrac was administered via intramuscular injection into the thigh muscle once a day, at approximately the same time each day, several days a week over a three week period. The quantity of tetrac administered to each animal was adjusted according to the most recently recorded body weight. A constant dosage-volume of 0.5 ml/kg was used.
Morbidity and mortality. The animals were checked at least twice a day, for mortality and signs of morbidity.
Body weight. Body weight was recorded for each animal once before the beginning of the treatment period, on the first day of the treatment period, and at least once a week until the end of the study.
Food consumption. Food consumption was estimated for each animal by calculating the difference between the quantity given and that remaining the next morning. This was estimated daily during the week before treatment and throughout the study. Food consumption was expressed as a percentage of the quantity given. Whenever fasting was required, the food was removed at the end of the day and the estimation of consumption was made at that time, food being made available for approximately five hours on that day.

[3] = infusion 13.5 nmol/day/100 g BW
[4] = Female, treatment period (3 weeks, 75 μg/kg/day i.m.)
[5] = Female, washout period (3 weeks)
[6] = Male, treatment period (3 weeks, 75 μg/kg/day i.m.)

concentration at 13 days ([2]; T4 infusion 0.5 nmol/day/100 g BW): 43.1 ± 2.8 nM
concentration at 13 days ([2]; T4 infusion 1.5 nmol/day/100 g BW): 77.1 ± 9.4 nM
concentration at 13 days ([2]; T4 infusion 4.5 nmol/day/100 g BW): 130 ± 9.5 nM
concentration at 13 days ([2]; T4 infusion 13.5 nmol/day/100 g BW): 353 ± 31.7 nM
SMILES: N[C@@H](Cc1cc(I)c(Oc2cc(I)c(O)c(I)c2)c(I)c1)C(=O)O [T4, L-thyroxine, reference compound]
Residual Monodeiodinase type 1 mRNA, adjusted mean [1]: 5.1 arbitrary units
Heart (hypothyroid rats; 0.5 nmol/day/100 g BW): 0.86 ± 0.06 g
Heart (hypothyroid rats; 1.5 nmol/day/100 g BW): 0.90 ± 0.04 g
Heart (hypothyroid rats; 4.5 nmol/day/100 g BW): 1.19 ± 0.03 g
Heart (hypothyroid rats; 13.5 nmol/day/100 g BW): 1.32 ± 0.11 g
Heart/BW (%) (hypothyroid rats; infusion 0.5 nmol/day/100 g BW): 0.35 ± 0.02%
Heart/BW (%) (hypothyroid rats; infusion 1.5 nmol/day/100 g BW): 0.34 ± 0.01%
Heart/BW (%) (hypothyroid rats; infusion 4.5 nmol/day/100 g BW): 0.45 ± 0.02%
Heart/BW (%) (hypothyroid rats; [3]): 0.54 ± 0.02%
Serum TSH (TSH; infusion 0.5 nmol/day/100 g BW): 110.2 ± 10.8 ng/mL
Serum TSH (TSH; infusion 1.5 nmol/day/100 g BW): 11.8 ± 3.0 ng/mL
Serum TSH (TSH; infusion 4.5 nmol/day/100 g BW): 1.0 ± 0.2 ng/mL
Serum TSH (TSH; [3]): <0.8 ng/mL
Serum TSH concentration, mean of treatment group (TSH; mean over all dose levels of the treated rats, p=<0.04): 31 ng/mL
β-MHC mRNA, adjusted mean (β-MHC mRNA): 495 arbitrary units
Residual monodeiodinase type 2 activity, T4/Tetrac (activity of T4 in % of Tetrac) (Monodeiodinase type 2; BAT): 42%
Residual monodeiodinase type 2 activity, adjusted mean (Monodeiodinase type 2; BAT): 11.8
Residual monodeiodinase type 2 activity, T4/Tetrac (activity of T4 in % of Tetrac) (Monodeiodinase type 2; Brain Cortex): 18%
Residual monodeiodinase type 2 activity, adjusted mean (Monodeiodinase type 2; Brain Cortex): 5.02
α-MHC mRNA, T4/Tetrac (activity of T4 in % of Tetrac) (α-MHC mRNA): 21%
α-MHC mRNA, adjusted mean (α-MHC mRNA; infused rats, adjusted group mean at the mean Ln (TSH) concentration): 1.13 arbitrary units
Residual Monodeiodinase type 1 activity, adjusted mean (Monodeiodinase type 1): 180
GH mRNA, adjusted mean (GH mRNA): 28644 arbitrary units

SMILES: O=C(O)Cc1cc(I)c(Oc2cc(I)c(O)c(I)c2)c(I)c1 [Tetrac from Henning Laboratory, 3,3′,5,5′-tetraiodothyroacetic acid]
Body weight gain (%) (Cynomologus monkeys; Female, treatment period): g (+9%)
Food consumption 75%: days of observation/number of days in period (Cynomologus monkeys; Female, treatment period): 75%: 13/21
Food consumption 100%: days of observation/number of days in period (Cynomologus monkeys; Female, treatment period): 100%: 8/21
Food consumption (in words) (Cynomologus monkeys; Female, treatment period): slightly lower food consumption
Body weight gain (Cynomologus monkeys; [4]): +300 g
Body weight gain (%) (Cynomologus monkeys; Female, washout period): g (+3%)
Food consumption 75%: days of observation/number of days in period (Cynomologus monkeys; Female, washout period): 75%: 3/21
Food consumption 100%: days of observation/number of days in period (Cynomologus monkeys; Female, washout period): 100%: 18/21
Body weight gain (Cynomologus monkeys; [5]): +100 g
Body weight gain (%) (Cynomologus monkeys; Male, treatment period): g (+3%)
Food consumption 100%: days of observation/number of days in period (Cynomologus monkeys; Male, treatment period): 100%: 21/21
Body weight gain (Cynomologus monkeys; [6]): +200 g
Food consumption 100%: days of observation/number of days in period (Cynomologus monkeys; Male, washout period): 100%: 21/21
Body weight gain (Cynomologus monkeys; Male, washout period (3 weeks)): 0 g

SMILES: O=C(O)Cc1cc(I)c(Oc2cc(I)c(O)c(I)c2)c(I)c1 [Tetrac from Rhône-Poulenc, 3,3′,5,5′-tetraiodothyroacetic acid]
Body weight gain (%) (Cynomologus monkeys; Female, treatment period): g (+8%)
Food consumption 75%: days of observation/number of days in period (Cynomologus monkeys; Female, treatment period): 75%: 7/21
Food consumption 100%: days of observation/number of days in period (Cynomologus monkeys; Female, treatment period): 100%: 14/21
Body weight gain (Cynomologus monkeys; [4]): +300 g
Food consumption 75%: days of observation/number of days in period (Cynomologus monkeys; Female, washout period): 75%: 5/21
Food consumption 100%: days of observation/number of days in period (Cynomologus monkeys; Female, washout period): 100%: 16/21
Body weight gain (Cynomologus monkeys; [5]): 0 g
Body weight gain (%) (Cynomologus monkeys; Male, treatment period): g (+2%)
Food consumption 75%: days of observation/number of days in period (Cynomologus monkeys; Male, treatment period): 75%: 1/21
Food consumption 100%: days of observation/number of days in period (Cynomologus monkeys; Male, treatment period): 100%: 20/21
Body weight gain (Cynomologus monkeys; [6]): +100 g
Body weight gain (%) (Cynomologus monkeys; Male, washout period): g (+2%)
Food consumption 100%: days of observation/number of days in period (Cynomologus monkeys; Male, washout period): 100%: 21/21
Body weight gain (Cynomologus monkeys; Male, washout period (3 weeks)): +100 g
